17 compounds from patent publication US7435820B2, “Substituted tetrahydro-1H-pyrazolo [3,4-c]pyridines compositions comprising them, and use” (Aventis Pharma S.A., priority 2003, dated 2008) can be followed below.

SMILES strings stand for the structures. Like-named read-outs stand apart in the source and are kept apart here.

One test concerns the target T1, human Tie2 (Homo sapiens, UniProt Q02763).
T1 construct: human Tie2 corresponding to amino acids 776-1124 of the intracellular domain was generated by PCR; made in house; host or cells: baculovirus expression system (vector pFastBacGT)
In words: Tie2 kinase inhibition: phosphorylation of GST-PLC (SH2-SH3 fragments) by GST-Tie2, 33P-ATP flashplate. The class given is biochemical. Here is the method:
The coding sequence of human Tie2 corresponding to amino acids 776-1124 of the intracellular domain was generated by PCR using the cDNA isolated from human placenta as model. This sequence was introduced into a baculovirus expression vector pFastBacGT in the form of a GST fusion protein.
The inhibitory effect of the molecules is determined in an assay for phosphorylation of PLC by Tie2 in the presence of GST-Tie2 purified to approximately 80% homogeneity. The substrate is made up of the SH2-SH3 fragments of PLC, the latter being expressed in the form of a GST fusion protein.
The kinase activity of Tie2 is measured in a 20 mM MOPS buffer, pH 7.2, containing 10 mM MgCl2, 10 mM MnCl2, 1 mM DTT and 10 mM of glycerophosphate. A reaction mixture made up of 70 μl of kinase buffer containing 100 ng of GST-Tie2 enzyme per well is placed in a flashplate 96-well plate kept on ice. 10 μl of the molecule to be tested, diluted in DMSO, at a concentration of at most 10% are then added. For a given concentration, each measurement is carried out in quadruplicate. The reaction is initiated by adding 20 μl of solution containing 2 μg of GST-PLC, 2 μM of cold ATP and 1 μCi of ^33P[ATP]. After incubation for 1 hour at 37° C., the reaction is stopped by adding 1 volume (100 μl) of 200 mM EDTA. After removal of the incubation buffer, the wells are washed three times with 300 μl of PBS. The radioactivity is measured on a Wallac MicroBeta 1450.
The inhibition of the Tie2 activity is calculated and expressed as percentage inhibition with respect to the control activity determined in the absence of compound.

The target of another test is T2, human KDR enzyme (Homo sapiens, UniProt P35968).
T2 construct: The cytoplasmic domain of the human KDR enzyme was cloned in GST fusion form; GST; made in house; host or cells: SF21 insect cells (baculovirus, pFastBac)
In words: KDR kinase inhibition: phosphorylation of PLCγ SH2-SH3 substrate by KDR enzyme, 33P-ATP scintillation plate. Format: biochemical. Here is the method: The inhibitory effect of the compounds is determined in an assay for phosphorylation of substrate by the KDR enzyme in vitro using a scintillation technique (96-well plate, NEN).
The cytoplasmic domain of the human KDR enzyme was cloned in GST fusion form into the baculovirus expression vector pFastBac. The protein was expressed in SF21 cells and purified to approximately 60% homogeneity. The KDR kinase activity is measured in 20 mM MOPS, 10 mM MgCl2, 10 mM MnCl2, 1 mM DTT, 2.5 mM EGTA, 10 mM b-glycerophosphate, pH=7.2, in the presence of 10 mM MgCl2, 100 μM Na3VO4 and 1 mM NaF. 10 μl of the compound are added to 70 μl of kinase buffer containing 100 ng of KDR enzyme at 4° C. The reaction is initiated by adding 20 μl of solution containing 2 μg of substrate (SH2-SH3 fragment of PLCγ expressed in the form of an GST fusion protein), 2 μCi γ ^33P[ATP] and 2 μM cold ATP. After incubation for 1 hour at 37° C., the reaction is stopped by adding 1 volume (100 μl) of 200 mM EDTA. The incubation buffer is removed and the wells are washed three times with 300 μl of PBS. The radioactivity is measured in each well using a Top Count NXT (Packard) radioactivity counter.
The background noise is determined by measuring the radioactivity in four different wells containing the radioactive ATP and the substrate alone.
A total activity control is measured in four different wells containing all the reagents (γ^33P-[ATP], KDR and PLC-γ substrate) but in the absence of compound.
The inhibition of the KDR activity with the compound of the invention is expressed as percentage inhibition of the control activity determined in the absence of compound.
The compound SU5614 (Calbiochem) (1 μM) is included in each plate as inhibition control.

Where [1] appears, read: Assay 1, read-out: Tie2 % Inhib at 10 μM (FRX) Assay 1.
Setting [2] is: Assay 2, read-out: Tie2 % Inhib at 10 μM (FRX) Assay 2.
[3] abbreviates: Assay 1, read-out: KDR % Inhib at 10 μM Assay 1.
Where [4] appears, read: Assay 2, read-out: KDR % Inhib at 10 μM Assay 2.

T2 sequence (P35968 786-1356 limits assumed): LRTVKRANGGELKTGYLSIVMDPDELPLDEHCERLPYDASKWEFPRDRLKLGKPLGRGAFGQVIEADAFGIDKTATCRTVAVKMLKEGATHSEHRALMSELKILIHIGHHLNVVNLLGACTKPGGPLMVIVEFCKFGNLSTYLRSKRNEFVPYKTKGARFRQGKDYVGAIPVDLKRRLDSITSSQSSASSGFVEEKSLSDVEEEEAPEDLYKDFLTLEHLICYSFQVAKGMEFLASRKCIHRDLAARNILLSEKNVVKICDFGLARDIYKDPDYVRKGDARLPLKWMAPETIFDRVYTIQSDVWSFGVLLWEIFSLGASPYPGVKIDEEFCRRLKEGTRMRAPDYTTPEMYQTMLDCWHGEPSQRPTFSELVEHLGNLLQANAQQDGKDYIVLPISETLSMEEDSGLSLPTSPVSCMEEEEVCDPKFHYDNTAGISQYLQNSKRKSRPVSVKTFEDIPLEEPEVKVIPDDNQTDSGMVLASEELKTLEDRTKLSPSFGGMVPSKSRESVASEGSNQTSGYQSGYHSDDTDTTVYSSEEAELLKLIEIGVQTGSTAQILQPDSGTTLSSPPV
T1 sequence (Q02763 776-1124): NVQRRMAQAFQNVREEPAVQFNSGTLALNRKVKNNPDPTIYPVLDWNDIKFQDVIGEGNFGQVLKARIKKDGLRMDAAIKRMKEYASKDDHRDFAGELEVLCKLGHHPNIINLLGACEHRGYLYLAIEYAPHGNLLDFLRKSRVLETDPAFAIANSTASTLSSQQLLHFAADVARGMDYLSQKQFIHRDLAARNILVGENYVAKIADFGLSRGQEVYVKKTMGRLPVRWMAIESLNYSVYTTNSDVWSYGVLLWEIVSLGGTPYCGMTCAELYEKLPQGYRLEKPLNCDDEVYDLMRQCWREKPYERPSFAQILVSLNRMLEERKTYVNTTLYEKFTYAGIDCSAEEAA

For `CCCCN1CCc2c(n[nH]c2-c2nc3cc(C)c(C)cc3[nH]2)C1` [Chemistry 20], the values for the inhibition at 10 µM at human Tie2 (read-out: Tie2 % Inhib. 10 μM) and on human KDR enzyme (read-out: KDR % Inhib. 10 μM) were 47.6% and 1.65%, respectively.
The corresponding values for `Cc1cc2nc(-c3[nH]nc4c3CCN(Cc3cccc(Cl)c3Cl)C4)[nH]c2cc1C` [Chemistry 10] are 83.9% and 79.5%.
Taken in the same sequence, the figures for `CCCC(=O)N1CCc2c(n[nH]c2-c2nc3cc(C)c(C)cc3[nH]2)C1` [Chemistry 52] were 89.3% and 29.4%.
Taken in the same sequence, the figures for `Cc1cc2nc(-c3[nH]nc4c3CCN(C(=O)C3CC3)C4)[nH]c2cc1C` [Chemistry 45] were 94.1% and 33.4%.
Turning to `Cc1cc2nc(-c3[nH]nc4c3CCN(C(=O)Nc3ccc(Cl)cc3)C4)[nH]c2cc1C` [Chemistry 63], the inhibition at 10 µM on human Tie2 (read-out: Tie2 % Inhib. 10 μM) is 23.8%; on human KDR enzyme (read-out: KDR % Inhib. 10 μM), -0.3%.
For the compound `Cc1cc2nc(-c3[nH]nc4c3CCN(C(=O)c3ccc(Cl)cc3)C4)[nH]c2cc1C` [Chemistry 48], the inhibition at 10 µM at human Tie2 (read-out: Tie2 % Inhib. 10 μM) was found to be 83.8%; on human KDR enzyme (read-out: KDR % Inhib. 10 μM) it was 42%.
Taken in the same sequence, the figures for `Cc1cc2nc(-c3[nH]nc4c3CCN(C(=O)Nc3cccs3)C4)[nH]c2cc1C` [Chemistry 65] were 85.9% and 63.3%.
The corresponding values for `Cc1cc2nc(-c3[nH]nc4c3CCN(C(=O)CC(C)C)C4)[nH]c2cc1C` [Chemistry 49] are 84.8% and 12.2%.
As to `Cc1cc2nc(-c3[nH]nc4c3CCN(C(=O)c3ccccc3NCc3ccccc3)C4)[nH]c2cc1C` [Example P-31378-112-8], the inhibition at 10 µM at human Tie2 (setting [1]) stood at 87.8%; on human Tie2 (setting [2]), 93.3%; at human KDR enzyme (setting [3]) it was 86.8%; at human KDR enzyme (setting [4]), 89%.
As for `Cc1cc2nc(-c3[nH]nc4c3CCN(S(=O)(=O)c3cccc(Cl)c3)C4)[nH]c2cc1C` [Chemistry 32], the values for the inhibition at 10 µM at human Tie2 (read-out: Tie2 % Inhib. 10 μM) and at human KDR enzyme (read-out: KDR % Inhib. 10 μM) were 91.5% and 46.5%, respectively.
`Cc1cc2nc(-c3[nH]nc4c3CCN(CCc3ccccc3)C4)[nH]c2cc1C` [Chemistry 9]: the inhibition at 10 µM on human Tie2 (read-out: Tie2 % Inhib. 10 μM) stood at 56.7%; at human KDR enzyme (read-out: KDR % Inhib. 10 μM) it was 15.4%.
Taken in the same sequence, the figures for `Cc1cc2nc(-c3[nH]nc4c3CCN(S(=O)(=O)Cc3ccccc3)C4)[nH]c2cc1C` [Chemistry 24] were 91.5% and 70.8%.
Turning to `Cc1cc2nc(-c3[nH]nc4c3CCN(C(=O)c3ccccc3Nc3cccc(Cl)c3C)C4)[nH]c2cc1C` [Example P-31375-112-10], the inhibition at 10 µM on human Tie2 (setting [1]) turned out to be 90.6%; at human Tie2 (setting [2]), 87.9%; on human KDR enzyme (setting [3]) it was 42.3%; on human KDR enzyme (setting [4]), 28.7%.
Take `Cc1cc2nc(-c3[nH]nc4c3CCN(C(=O)c3ccccc3)C4)[nH]c2cc1C` [Chemistry 41]: the inhibition at 10 µM at human Tie2 (read-out: Tie2 % Inhib. 10 μM) stood at 86.3%; at human KDR enzyme (read-out: KDR % Inhib. 10 μM), 72.5%.
Taken in the same sequence, the figures for `Cc1cc2nc(-c3[nH]nc4c3CCN(CCCc3ccccc3)C4)[nH]c2cc1C` [Chemistry 19] were 68.1% and 17.9%.
Taken in the same sequence, the figures for `Cc1cc2nc(-c3[nH]nc4c3CCN(Cc3cccnc3)C4)[nH]c2cc1C` [Chemistry 14] were 50.5% and 14.8%.
For `Cc1cc2nc(-c3[nH]nc4c3CCN(C(=O)c3ccccc3Nc3ccccc3)C4)[nH]c2cc1C` [Example P-31378-112-1], the inhibition at 10 µM was found to be 83.1% at human Tie2 (setting [1]), 88.1% at human Tie2 (setting [2]), 96.5% on human KDR enzyme (setting [3]) and 96.7% at human KDR enzyme (setting [4]).
